# Experimental data as given in ChEMBL document CHEMBL1133572, “Protease inhibitors: current status and future prospects” (J Med Chem, 2000).
# Non-standard residues stand in square brackets, D forms with d. Residues, ends and D or L forms follow the SMILES beside them. *: point of attachment. Cbz = O=C(OCc1ccccc1)*; Dap = NC[C@H](N)C(=O)O
# Tests used:
# Neprilysin = biological target: T1, Neprilysin (Rattus norvegicus, UniProt P07861); assay: Inhibitory activity against neutral Endopeptidase
# T1 sequence (P07861 whole entry): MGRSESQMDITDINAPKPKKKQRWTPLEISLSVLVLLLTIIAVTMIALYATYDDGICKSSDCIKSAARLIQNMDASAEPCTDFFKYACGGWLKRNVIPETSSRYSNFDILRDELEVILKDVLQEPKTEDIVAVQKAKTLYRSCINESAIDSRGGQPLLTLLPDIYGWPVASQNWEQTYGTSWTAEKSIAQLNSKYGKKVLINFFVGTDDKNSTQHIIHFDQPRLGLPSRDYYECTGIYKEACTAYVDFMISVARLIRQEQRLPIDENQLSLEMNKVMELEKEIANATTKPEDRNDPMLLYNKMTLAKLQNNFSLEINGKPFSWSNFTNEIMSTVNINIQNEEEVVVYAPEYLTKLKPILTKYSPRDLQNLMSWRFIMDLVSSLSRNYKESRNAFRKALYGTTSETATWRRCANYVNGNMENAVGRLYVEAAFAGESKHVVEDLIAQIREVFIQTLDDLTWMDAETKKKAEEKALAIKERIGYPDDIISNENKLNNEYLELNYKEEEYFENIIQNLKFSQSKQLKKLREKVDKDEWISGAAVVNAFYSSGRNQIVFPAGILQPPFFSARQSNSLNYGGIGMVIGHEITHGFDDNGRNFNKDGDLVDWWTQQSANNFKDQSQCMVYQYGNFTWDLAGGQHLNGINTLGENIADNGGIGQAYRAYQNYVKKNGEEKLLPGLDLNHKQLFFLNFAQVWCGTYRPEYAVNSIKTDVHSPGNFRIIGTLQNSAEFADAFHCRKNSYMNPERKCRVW
# Papain = Papain (Carica papaya, UniProt P00784); assay: The apparent binding affinity against Papain; conditions: read-out: Ki app
# Papain, sequence (P00784 whole entry): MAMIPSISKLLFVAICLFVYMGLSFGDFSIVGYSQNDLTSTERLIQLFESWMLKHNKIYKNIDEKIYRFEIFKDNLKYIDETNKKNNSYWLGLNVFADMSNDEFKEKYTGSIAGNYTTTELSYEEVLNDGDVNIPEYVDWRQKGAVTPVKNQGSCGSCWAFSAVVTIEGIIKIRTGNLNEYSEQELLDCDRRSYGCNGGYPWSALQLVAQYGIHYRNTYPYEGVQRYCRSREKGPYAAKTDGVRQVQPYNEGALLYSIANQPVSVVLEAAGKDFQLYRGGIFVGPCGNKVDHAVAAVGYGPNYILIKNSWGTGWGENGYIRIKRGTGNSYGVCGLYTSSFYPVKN
# Cathepsin B = Cathepsin B (Homo sapiens, UniProt P07858)
# Procathepsin L = Procathepsin L (Homo sapiens, UniProt P07711)
# Procathepsin L, sequence (P07711 whole entry): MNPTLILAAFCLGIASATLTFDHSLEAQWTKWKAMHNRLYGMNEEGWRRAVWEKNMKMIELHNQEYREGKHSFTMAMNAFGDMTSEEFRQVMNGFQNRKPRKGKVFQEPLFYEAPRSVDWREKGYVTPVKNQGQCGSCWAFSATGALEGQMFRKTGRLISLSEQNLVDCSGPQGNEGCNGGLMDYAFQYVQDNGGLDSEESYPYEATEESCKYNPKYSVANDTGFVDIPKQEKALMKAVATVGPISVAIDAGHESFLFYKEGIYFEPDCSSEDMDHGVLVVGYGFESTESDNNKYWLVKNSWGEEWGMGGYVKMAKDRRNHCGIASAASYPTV
# [1] = Oral bioavailability in dog; assay type: ADME, organism-based, Canis lupus familiaris; conditions: in vivo
# [2] = Cmax value at the period of 800 mg po for every 8 hr.; assay type: ADME, organism-based; set-up: dose 800 mg, route oral; conditions: in vivo
# [3] = Tmax value of the compound; assay type: ADME
# Cricetinae gen. sp. [4] = assay: Inhibitory concentration against elastase; assay type: functional, Cricetulus griseus; conditions: read-out: ID50 (the source's name)
# [5] = Partition coefficient (logP); assay type: physicochemical; conditions: octanol/water; read-out: logP
# [6] = Binding affinity against plasmepsin; set-up: species or system Plasmodium falciparum
# [7] = oral bioavailability in dogs and monkeys.; assay type: ADME, organism-based, Canis lupus familiaris; conditions: dog, in vivo, read-out: Bioavailabiility
# [8] = Inhibitory concentration against several aspartic proteases of Candida albicans
# Cathepsin D [9] = biological target: T2, Cathepsin D (Homo sapiens, UniProt P07339); assay: Inhibitory concentration against cathepsin D
# T2 sequence (P07339 65-162 limits assumed): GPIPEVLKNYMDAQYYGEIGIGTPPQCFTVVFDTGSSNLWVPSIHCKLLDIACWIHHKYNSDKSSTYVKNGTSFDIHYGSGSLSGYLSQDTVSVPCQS
# T2 sequence (P07339 169-412 limits assumed): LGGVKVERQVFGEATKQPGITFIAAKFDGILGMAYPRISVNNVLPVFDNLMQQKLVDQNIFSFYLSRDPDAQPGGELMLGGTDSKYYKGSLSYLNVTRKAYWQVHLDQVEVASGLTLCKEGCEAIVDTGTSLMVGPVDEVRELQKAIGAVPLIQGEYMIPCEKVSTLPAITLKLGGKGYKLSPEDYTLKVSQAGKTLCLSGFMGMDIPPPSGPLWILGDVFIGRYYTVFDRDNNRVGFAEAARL
# Renin [10] = biological target: T3, Renin (Homo sapiens, UniProt P00797); assay: Inhibitory concentration against renin.
# T3 sequence (P00797 whole entry): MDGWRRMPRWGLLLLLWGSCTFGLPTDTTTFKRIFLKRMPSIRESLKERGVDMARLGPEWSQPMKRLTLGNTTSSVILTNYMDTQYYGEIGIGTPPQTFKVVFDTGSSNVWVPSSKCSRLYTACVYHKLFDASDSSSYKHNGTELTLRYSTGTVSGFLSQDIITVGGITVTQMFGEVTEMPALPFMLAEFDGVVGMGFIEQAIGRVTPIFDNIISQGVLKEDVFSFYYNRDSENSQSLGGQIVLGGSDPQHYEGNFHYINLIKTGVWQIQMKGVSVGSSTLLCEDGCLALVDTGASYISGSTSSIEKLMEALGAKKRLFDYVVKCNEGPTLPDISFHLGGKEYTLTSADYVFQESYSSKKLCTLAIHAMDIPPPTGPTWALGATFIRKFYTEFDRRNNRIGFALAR
# Caspase-3 = Caspase-3 (Homo sapiens, UniProt P42574); assay: Inhibitory activity against caspase-3.
# Caspase-3, sequence (P42574 29-175 limits assumed): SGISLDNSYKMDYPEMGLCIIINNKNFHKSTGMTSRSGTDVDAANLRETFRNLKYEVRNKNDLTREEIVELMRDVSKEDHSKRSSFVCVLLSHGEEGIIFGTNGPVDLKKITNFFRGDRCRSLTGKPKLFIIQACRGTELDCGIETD
# Caspase-3, sequence (P42574 176-277 limits assumed): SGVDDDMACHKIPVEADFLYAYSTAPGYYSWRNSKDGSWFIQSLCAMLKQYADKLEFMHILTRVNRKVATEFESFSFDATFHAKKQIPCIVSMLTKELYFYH
# Caspase-1 = biological target: T4, Caspase-1 (Homo sapiens, UniProt P29466)
# T4 sequence (P29466 whole entry): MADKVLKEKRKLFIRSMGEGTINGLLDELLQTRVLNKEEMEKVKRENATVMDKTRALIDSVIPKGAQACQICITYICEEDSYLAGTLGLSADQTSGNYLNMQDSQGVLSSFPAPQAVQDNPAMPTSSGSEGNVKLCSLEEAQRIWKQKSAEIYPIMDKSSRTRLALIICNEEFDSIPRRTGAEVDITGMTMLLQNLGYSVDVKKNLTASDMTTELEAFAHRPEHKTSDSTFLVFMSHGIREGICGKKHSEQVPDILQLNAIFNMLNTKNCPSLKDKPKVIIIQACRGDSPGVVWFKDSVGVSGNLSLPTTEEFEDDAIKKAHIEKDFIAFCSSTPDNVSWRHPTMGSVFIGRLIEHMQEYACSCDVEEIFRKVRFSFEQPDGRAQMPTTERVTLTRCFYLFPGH
# Homo sapiens = organism: Homo sapiens; assay: Half life in humans.; assay type: ADME, organism-based; conditions: in vivo
# [11] = The inhibition against liver metastases at 100 ug/mL.; assay type: ADME, tissue-based
# [12] = Oral bioavailability in rats at the dose of 10 mg/kg po; assay type: ADME, organism-based; conditions: rat, in vivo, read-out: Bioavailabiility
# [13] = Cmax value in the period of 0-24 hr after dosing.; assay type: ADME, organism-based; conditions: in vivo
# [14] = Plasma half life at the dose of 5 mg/kg iv.; assay type: ADME, organism-based; set-up: dose 5 mg/kg
# [15] = Half life.; assay type: ADME
# [16] = biological target: Neutrophil elastase (Homo sapiens) (UniProt P08246); assay: Inhibition of elastase.
# Neutrophil elastase (Homo sapiens), sequence (P08246 whole entry): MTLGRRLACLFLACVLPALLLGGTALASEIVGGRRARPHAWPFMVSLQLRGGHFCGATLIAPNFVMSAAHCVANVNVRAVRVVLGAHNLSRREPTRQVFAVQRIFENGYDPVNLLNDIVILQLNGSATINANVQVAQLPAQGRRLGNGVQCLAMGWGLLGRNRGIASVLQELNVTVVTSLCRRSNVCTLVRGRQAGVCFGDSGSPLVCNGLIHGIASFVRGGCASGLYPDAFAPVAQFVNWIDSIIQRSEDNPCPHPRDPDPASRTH
# Cricetinae gen. sp. [17] = assay: Inhibition against at the dose of 30 mg/kg after 30 minutes.; assay type: functional, Cricetulus griseus; conditions: 0.5 h
# Cricetinae gen. sp. [18] = assay: Inhibition against at the dose of 30 mg/kg after 5 hr.; assay type: functional, Cricetulus griseus
# [19] = Cmax value of the compound; assay type: ADME, organism-based; conditions: in vivo
# [20] = Half life in dogs.; assay type: ADME, organism-based, Canis lupus familiaris; conditions: dog, in vivo
# [21] = oral bioavailability in marmosets; assay type: ADME, organism-based; conditions: callithrix, in vivo, read-out: Bioavailabiility
# Cathepsin D [22] = biological target: T2, Cathepsin D; assay: Inhibitory concentration against human cathepsin D.
# Renin [23] = biological target: T3, Renin
# Pepsin A = Pepsin A (Sus scrofa, UniProt P00791); assay: Inhibitory concentration against porcine pepsin
# Pepsin A, sequence (P00791 whole entry): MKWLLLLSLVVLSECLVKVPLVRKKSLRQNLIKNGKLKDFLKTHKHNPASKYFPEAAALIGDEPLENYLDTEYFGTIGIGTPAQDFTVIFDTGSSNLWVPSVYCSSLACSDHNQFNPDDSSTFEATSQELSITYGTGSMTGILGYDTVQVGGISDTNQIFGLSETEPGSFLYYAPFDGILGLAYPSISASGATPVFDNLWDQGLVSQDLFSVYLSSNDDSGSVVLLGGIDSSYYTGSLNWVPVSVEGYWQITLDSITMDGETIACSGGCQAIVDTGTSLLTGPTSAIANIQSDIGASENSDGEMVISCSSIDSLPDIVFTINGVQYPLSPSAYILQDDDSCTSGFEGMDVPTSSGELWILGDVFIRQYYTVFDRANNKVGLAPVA
# [24] = oral bioavailability in cynomolgus monkeys; assay type: ADME, organism-based, Macaca fascicularis; conditions: cynomolgus monkey, in vivo, read-out: Bioavailabiility
# Plasmepsin I = Plasmepsin I (Plasmodium falciparum, UniProt P39898); assay: Inhibitory concentration for Plasmodium falciparum plasmepsin-1.
# [25] = biological target: Plasmepsin II (Plasmodium falciparum) (UniProt P46925); assay: Inhibition of Plasmodium falciparum plasmepsin-2 at 10 uM
# Plasmepsin II (Plasmodium falciparum), sequence (P46925 125-453 limits assumed): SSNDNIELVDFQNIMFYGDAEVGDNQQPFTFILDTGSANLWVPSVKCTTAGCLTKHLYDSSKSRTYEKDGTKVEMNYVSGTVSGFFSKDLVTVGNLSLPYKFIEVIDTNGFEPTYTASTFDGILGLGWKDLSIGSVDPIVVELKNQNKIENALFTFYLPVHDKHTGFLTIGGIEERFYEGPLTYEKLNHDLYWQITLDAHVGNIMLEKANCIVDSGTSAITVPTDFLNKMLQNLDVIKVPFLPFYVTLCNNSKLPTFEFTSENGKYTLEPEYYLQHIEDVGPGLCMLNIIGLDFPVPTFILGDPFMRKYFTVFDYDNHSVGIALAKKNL
# [26] = Inhibitory concentration against the live parasite in preventing hemoglobin degradation.; assay type: functional
# [27] = biological target: T5, Disintegrin and metalloproteinase domain-containing protein 17 (Homo sapiens, UniProt P78536); assay: Inhibitory activity against Tumor necrosis factor alpha-converting enzyme (TACE) with respect to matrix metalloprotease-1 (MMP-1).
# T5 sequence (P78536 whole entry, the tested form may be a part): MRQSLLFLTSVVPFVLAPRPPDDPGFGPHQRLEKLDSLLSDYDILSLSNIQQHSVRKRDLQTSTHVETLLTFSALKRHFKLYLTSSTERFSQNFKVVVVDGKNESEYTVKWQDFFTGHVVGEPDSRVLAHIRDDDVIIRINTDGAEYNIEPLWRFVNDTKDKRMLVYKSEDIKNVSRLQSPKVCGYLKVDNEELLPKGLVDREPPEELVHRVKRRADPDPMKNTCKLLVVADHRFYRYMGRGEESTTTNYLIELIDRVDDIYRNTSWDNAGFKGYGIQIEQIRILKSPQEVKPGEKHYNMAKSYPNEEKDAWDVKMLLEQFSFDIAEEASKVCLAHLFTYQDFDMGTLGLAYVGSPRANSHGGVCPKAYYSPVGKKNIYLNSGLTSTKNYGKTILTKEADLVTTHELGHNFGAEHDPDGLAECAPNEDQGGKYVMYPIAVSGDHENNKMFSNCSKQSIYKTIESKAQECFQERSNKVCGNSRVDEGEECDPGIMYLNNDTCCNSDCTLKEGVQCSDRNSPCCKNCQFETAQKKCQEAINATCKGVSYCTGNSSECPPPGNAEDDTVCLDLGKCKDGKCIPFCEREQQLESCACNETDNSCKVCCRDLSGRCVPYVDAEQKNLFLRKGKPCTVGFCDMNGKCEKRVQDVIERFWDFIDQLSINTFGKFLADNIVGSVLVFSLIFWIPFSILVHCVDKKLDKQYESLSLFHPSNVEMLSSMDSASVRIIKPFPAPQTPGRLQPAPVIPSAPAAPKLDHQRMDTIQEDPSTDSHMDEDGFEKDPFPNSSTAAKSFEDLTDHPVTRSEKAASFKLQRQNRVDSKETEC
# [28] = biological target: T5, Disintegrin and metalloproteinase domain-containing protein 17; assay: Inhibition against Tumor necrosis factor alpha-converting enzyme (TACE) at 1 uM in human monocytes.; assay type: cell-based
# Renin [29] = biological target: T3, Renin; assay: Inhibitory concentration against renin..
# [30] = Inhibitory concentration against SAP
# Neutrophil collagenase = Neutrophil collagenase (Homo sapiens, UniProt P22894); assay: Inhibition of matrix metalloprotease-8 (MMP-8).
# [31] = biological target: Matrix metalloproteinase-9 (Homo sapiens, UniProt P14780)
# Matrix metalloproteinase-9, sequence (P14780 whole entry): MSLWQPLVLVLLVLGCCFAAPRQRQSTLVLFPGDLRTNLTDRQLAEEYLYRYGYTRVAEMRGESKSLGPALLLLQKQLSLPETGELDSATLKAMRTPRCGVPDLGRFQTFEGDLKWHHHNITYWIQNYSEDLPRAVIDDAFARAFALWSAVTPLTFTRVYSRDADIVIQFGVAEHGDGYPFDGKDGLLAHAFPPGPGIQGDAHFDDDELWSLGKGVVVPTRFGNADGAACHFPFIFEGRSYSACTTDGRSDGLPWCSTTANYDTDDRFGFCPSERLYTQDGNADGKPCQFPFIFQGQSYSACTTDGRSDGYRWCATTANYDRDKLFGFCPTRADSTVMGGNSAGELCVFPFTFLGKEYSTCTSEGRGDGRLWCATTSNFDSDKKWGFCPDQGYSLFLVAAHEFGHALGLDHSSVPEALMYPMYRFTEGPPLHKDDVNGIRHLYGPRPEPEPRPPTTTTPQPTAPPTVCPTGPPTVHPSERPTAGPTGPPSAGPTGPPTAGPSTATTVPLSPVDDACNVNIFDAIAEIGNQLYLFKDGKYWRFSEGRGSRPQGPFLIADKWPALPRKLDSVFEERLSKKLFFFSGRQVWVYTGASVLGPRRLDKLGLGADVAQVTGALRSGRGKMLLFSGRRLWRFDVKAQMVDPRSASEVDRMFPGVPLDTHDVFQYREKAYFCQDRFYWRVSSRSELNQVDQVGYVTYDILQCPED
# [32] = biological target: 72 kDa type IV collagenase (Homo sapiens, UniProt P08253)
# 72 kDa type IV collagenase, sequence (P08253 whole entry): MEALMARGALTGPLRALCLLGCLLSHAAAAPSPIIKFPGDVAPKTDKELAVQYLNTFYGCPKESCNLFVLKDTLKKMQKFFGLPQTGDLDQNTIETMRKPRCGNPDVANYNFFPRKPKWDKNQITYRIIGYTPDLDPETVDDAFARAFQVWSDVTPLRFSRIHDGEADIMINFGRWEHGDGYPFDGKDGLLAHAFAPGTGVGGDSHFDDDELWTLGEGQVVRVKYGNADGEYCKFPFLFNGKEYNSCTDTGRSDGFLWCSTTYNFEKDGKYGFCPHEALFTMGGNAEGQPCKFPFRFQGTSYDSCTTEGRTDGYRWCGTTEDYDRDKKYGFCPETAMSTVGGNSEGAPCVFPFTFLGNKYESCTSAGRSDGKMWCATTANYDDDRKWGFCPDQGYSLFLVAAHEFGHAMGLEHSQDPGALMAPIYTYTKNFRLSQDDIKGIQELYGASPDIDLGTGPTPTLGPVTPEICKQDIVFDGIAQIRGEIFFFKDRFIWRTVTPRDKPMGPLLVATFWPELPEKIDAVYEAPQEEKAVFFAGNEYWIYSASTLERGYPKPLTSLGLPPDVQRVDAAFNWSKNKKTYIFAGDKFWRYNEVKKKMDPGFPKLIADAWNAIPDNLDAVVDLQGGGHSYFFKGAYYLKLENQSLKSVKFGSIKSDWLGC
# [33] = biological target: T6, Human rhinovirus A protease (Human rhinovirus sp., UniProt Q4U254); assay: Effective concentration against human rhinovirus 3C protease.
# T6 sequence (Q4U254 whole entry): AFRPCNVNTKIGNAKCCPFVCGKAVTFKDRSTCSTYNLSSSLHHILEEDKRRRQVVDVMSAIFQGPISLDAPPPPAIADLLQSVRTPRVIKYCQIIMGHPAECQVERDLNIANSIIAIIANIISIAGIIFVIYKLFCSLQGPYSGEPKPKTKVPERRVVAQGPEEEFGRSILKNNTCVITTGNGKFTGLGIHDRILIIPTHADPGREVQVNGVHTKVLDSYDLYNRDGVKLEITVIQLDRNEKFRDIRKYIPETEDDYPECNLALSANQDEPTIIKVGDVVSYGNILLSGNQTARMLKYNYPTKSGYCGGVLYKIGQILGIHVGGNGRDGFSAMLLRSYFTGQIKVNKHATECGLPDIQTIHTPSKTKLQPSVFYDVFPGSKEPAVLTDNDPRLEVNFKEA
# Enterovirus = assay: Inhibitory activity against the different replication of HRV serotypes and related piocornaviruses A21 and B3, enterovirus 70 and echo virus 11; assay type: functional, organism-based
# Plasmepsin II = Plasmepsin II (Plasmodium falciparum, UniProt P46925); assay: Inhibitory concentration for Plasmodium falciparum plasmepsin-2.
# Plasmepsin II, sequence (P46925 whole entry): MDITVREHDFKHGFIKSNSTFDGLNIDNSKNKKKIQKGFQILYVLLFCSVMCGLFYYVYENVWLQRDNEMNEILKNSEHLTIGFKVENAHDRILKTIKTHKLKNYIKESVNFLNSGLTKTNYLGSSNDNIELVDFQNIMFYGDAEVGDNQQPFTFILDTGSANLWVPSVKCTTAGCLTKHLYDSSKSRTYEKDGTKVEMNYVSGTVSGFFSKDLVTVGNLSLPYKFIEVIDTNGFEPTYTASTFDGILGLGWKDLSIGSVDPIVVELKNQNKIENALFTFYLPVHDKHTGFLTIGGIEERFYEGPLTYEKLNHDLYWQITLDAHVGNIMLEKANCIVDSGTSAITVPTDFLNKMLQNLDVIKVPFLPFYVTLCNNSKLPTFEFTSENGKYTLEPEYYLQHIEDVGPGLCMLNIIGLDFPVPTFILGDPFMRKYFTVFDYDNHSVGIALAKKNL
# Cathepsin D [34] = biological target: T2, Cathepsin D
structure (smiles),measurement,setting,value
C[C@H](NC(=O)[C@@H](CS)Cc1ccc2c(c1)OCO2)C(=O)O,Ki,Neprilysin,5.6 nM
CC(C)C[C@H](NC(=O)OCc1ccccc1)C(=O)NCC(=O)CNC(=O)[C@H](CC(C)C)NC(=O)OCc1ccccc1,Ki,Papain,> 10000 nM
same,Ki,Cathepsin B,1300 nM
same,Ki,Procathepsin L,340 nM
CC(C)(C)NC(=O)[C@@H]1CN(Cc2cccnc2)CCN1C[C@@H](O)C[C@@H](Cc1ccccc1)C(=O)N[C@H]1c2ccccc2C[C@H]1O.O,bioavailability,[1]; read-out: Bioavailabiility,90%
same,Cmax,[2],12 µM
same,Tmax,[3],1 h
CC(C)(C)C(=O)Oc1ccc(S(=O)(=O)Nc2ccccc2C(=O)NCC(=O)O)cc1,ED50,Cricetinae gen. sp. [4],0.082 mg/kg
COc1ccc(CCN(C[C@H](O)[C@H](Cc2ccccc2)NC(=O)COc2cccc(Cl)c2)C(=O)C2CCNCC2)cc1,logP,[5],3.71
same,Ki,[6],4.3 nM
CN1CCN=C1c1cccc(Oc2nc(Oc3cc(C(=N)N)ccc3O)c(F)c(N(C)CC(=O)O)c2F)c1 [FIDEXABAN],bioavailability,[7],20%
CCCC[C@@H](C(=O)N[C@@H](CC1CCCCC1)[C@@H](O)C[C@H](C(=O)NCCC)C(C)C)N1CCN(C(=O)N2CCN(C)CC2)[C@H](Cc2ccccc2)C1=O,IC50,[8],1.4 nM
same,IC50,Cathepsin D [9],770 nM
same,IC50,Renin [10],7.1 nM
O=C1C[C@H](NC(=O)[C@@H]2CCC[C@@H]3CCC[C@H](NC(=O)OCc4ccccc4)C(=O)N32)C(O)O1 (some centres undefined),IC50,Caspase-3,> 10000 nM
same,IC50,Caspase-1,36 nM
CC1CNc2c(cccc2S(=O)(=O)N[C@@H](CCCNC(=N)N)C(=O)N2CC[C@@H](C)C[C@@H]2C(=O)O)C1 (some centres undefined) [ARGATROBAN],T1/2,Homo sapiens,40 h
CC(C)C[C@H](NC(=O)[C@H]1O[C@@H]1C(=O)O)C(=O)NCCCCN=C(N)N [E-64],Inhibition,[11],90%
CC(C)c1nc(CN(C)C(=O)N[C@H](C(=O)N[C@@H](Cc2ccccc2)C[C@H](O)[C@H](Cc2ccccc2)NC(=O)OCc2cncs2)C(C)C)cs1 [RITONAVIR],bioavailability,[12],78%
same,Cmax,[13],2.6 µM
same,Tmax,[3],2 h
same,half-life,[14],1.2 h
CC[C@@H](NC(=O)N1C(=O)[C@](C)(CC)[C@@H]1Oc1ccc(CC(=O)O)cc1)c1ccccc1,half-life,[15],5 h
same,K obs / 1,[16],91000 M⁻¹ s⁻¹
same,inhibition in vivo at 30 mg/kg,Cricetinae gen. sp. [17],98%
same,inhibition in vivo at 30 mg/kg,Cricetinae gen. sp. [18],51%
COc1cc(C(C)C)c2c(c1)S(=O)(=O)N(COC(=O)c1c(Cl)ccc(OCCN3CCOCC3)c1Cl)C2=O,Cmax,[19],470 ng/mL
CNC1CCN(C(=O)C[C@@H](Cc2ccccc2)C(=O)N[C@@H](CSC)C(=O)N[C@@H](CC2CCCCC2)[C@@H](O)C(=O)OC(C)C)CC1,bioavailability,[1],60%
same,half-life,[20],2.4 h
same,bioavailability,[21],59%
same,IC50,Cathepsin D [22],550 nM
same,IC50,Renin [23],4 nM
same,IC50,Pepsin A,2100 nM
same,bioavailability,[24],> 27%
CCCCC(O)[C@H](C)C[C@H](O)[C@H](CC1CCCCC1)NC(=O)[C@H](CC(C)C)NC(=O)[C@H](Cc1ccccc1)NC(=O)OC(C)(C)C (some centres undefined),IC50,Plasmepsin I,500 nM
same,inhibition,[25],22%
same,IC50,[26],5000 nM
C#CCSC[C@H](C(=O)NO)[C@@H](CC(C)C)C(=O)N[C@@H](Cc1ccccc1)C(=O)NC,IC50,[27],> 10000 nM
same,inhibition,[28],83%
CCCC[C@@H](C(=O)N[C@@H](CC1CCCCC1)[C@@H](O)C[C@H](C(=O)NCCN(C)C)C(C)C)N1CCN(C(=O)N2CCN(C)CC2)[C@H](Cc2ccccc2)C1=O,IC50,Cathepsin D [9],58000 nM
same,IC50,Renin [29],> 100 nM
same,IC50,[30],6.2 nM
CN1C(=O)N(C[C@H](C(=O)NO)[C@@H](CC2CCCC2)C(=O)N2CCCCC2)C(=O)C1(C)C,Ki,Neutrophil collagenase,4 nM
same,Ki,[31],59 nM
same,Ki,[32],154 nM
CCOC(=O)/C=C/[C@H](CCC(N)=O)NC(=O)[C@H](Cc1ccc(C)cc1)NC(=O)[C@@H](NC(=O)SC1CCCC1)C(C)(C)C,EC50,[33],56 nM
CC(=O)NC[C@@H](C=O)NC(=O)[C@H](Cc1ccccc1)NC(=O)[C@H](CC(C)C)NC(=O)OCc1ccccc1 (Cbz-Leu-Phe-[Dap](Ac)-aldehyde),Ki,Enterovirus,6 nM
CCCCNC(=O)C[C@H](O)[C@H](CC(C)C)NC(=O)[C@@H](NC(=O)Cc1ccc2ccccc2c1)C(C)CC (some centres undefined),IC50,Plasmepsin II,50 nM
same,IC50,Cathepsin D [34],320 nM
